Source: patent US20160272992A1, “PROTECTION OF PLANTS AGAINST OXIDATIVE STRESS” (priority 2013, published 2016)

Columns and labels:
[1] = tested on: Arabidopsis seedlings; experiment: High-light transfer of seedlings: PSII efficiency (chlorophyll a fluorescence) and leaf appearance; assay type: in vivo, Arabidopsis thaliana
Description: Unless stated otherwise, plants of Arabidopsis thaliana (L.) Heyhn (ecotype Columbia), were grown under long-day conditions (16 hours of light, 8 hours of darkness) at 22° C. on half-strength Murashige and Skoog (MS) germination medium (Murashige and Skoog, 1962). Arabidopsis plants were treated with HU as described by Cools et al. (2011). […] For light treatments, one-week-old seedlings were transferred to continuous high-light conditions (growth rooms kept at 22° C. with 24-hour day/0-hour night cycles and a light intensity of 300-400 μmol m^−2 s^−1) for 2 days, and subsequently retransferred to low-light conditions.
Chlorophyll a fluorescence parameters were measured using the IMAGING PAM M-Series Chlorofyll Fluorescence (Walz) and associated software.

[2] = tested on: SIM/SMR promoters; experiment: SIM/SMR promoter:GUS transcriptional reporter lines; assay type: in vivo, Arabidopsis thaliana
Description: SIM/SMR promoter sequences were amplified from genomic DNA by PCR using the primers described in Table 5. The product fragments were created with the Pfu DNA Polymerase Kit (Promega, Catalog #M7745), and were cloned into a pDONR P4-Plr entry vector by BP recombination cloning and subsequently transferred into the pMK7S*NFml4GW,0 destination vector by LR cloning, resulting in a transcriptional fusion between the promoter of the SMR genes and the nlsGFP-GUS fusion gene (Karimi et al., 2007). For the overexpression constructs, the SMR coding regions were amplified using primers described in Table 5, and cloned into the pDONR221 vector by BP recombination cloning and subsequently transferred into the pK2GW7 destination vector (Kamimi et al., 2002) by LR cloning. All constructs were transferred into the Agrobacterium tumefaciens C58C1RifR strain harboring the pMP90 plasmid. The obtained Agrobacterium strains were used to generate stably transformed Arabidopsis lines with the floral dip transformation method (Clough and Bent, 1998). Transgenic plants were obtained on kanamycin-containing medium and later transferred to soil for optimal seed production.
Complete seedlings or tissue cuttings were stained in multiwell plates (Falcon 3043; Becton Dickinson). GUS assays were performed as described by Beeckman and Engler (1994). Samples mounted in lactic acid were observed and photographed with a stereomicroscope (Olympus BX51 microscope) or with a differential interference contrast (DIC) microscope (Leica).
To confirm involvement of SIM/SMR genes in the genotoxic stress response, transcriptional reporter lines containing the putative upstream promoter sequences were constructed for all. After selection of representative reporter lines, one-week-old seedlings were transferred to control medium, or medium supplemented with HU (resulting into stalled replication forks) or bleomycin (causing DSBs).

[3] = tested on: catalase; experiment: Catalase assay (H2O2 breakdown by leaf protein extract); assay type: biochemical, Arabidopsis thaliana; settings: extracts of control plants germinated on 1 mM HU
Description: Plants were germinated on either control medium, medium with 1 mM HU or 6 μM 3-AT. Leaf tissue of 10 plants was ground in 200 μL extraction buffer (60 mM Tris (pH 6.9), 1 mM phenylmethylsulfonylfluoride, 10 mM DTT) on ice. The homogenate was centrifuged at 13,000 g for 15 minutes at 4° C. A total of 45 μg protein extract was mixed with potassium phosphate buffer (50 mM, pH 7.0) (Vandenabeele et al., 2004). After addition of 11.4 μL H2O2 (7.5%), the absorbance of the sample at 240 nm after 0 and 60 seconds was measured to determine catalase activity by H2O2 breakdown (Beers and Sizer, 1952; Vandenabeele et al., 2004).

[4] = tested on: ZmSMRg and ZmSMRh; experiment: qRT-PCR of maize SMR genes after HU treatment; assay type: in vivo; settings: root tips and leaves
[5] = tested on: 5-day-old wild-type root tips; settings: 2-mM hydroxyurea; cited from earlier work

Which results are given for `NC(=O)NO` [HU, hydroxyurea]?
maximum quantum efficiency of PSII (F′v/F′m) ([1]; one-week-old seedlings, 48 hours high light, in the presence of HU vs absence): decrease was even more pronounced; anthocyanin accumulation after transfer to high light ([1]; plants grown in the presence of HU, within 48 hours after transfer): accumulated anthocyanins in the young leaf tissue; transcriptional induction of SMR4, SMR5 and SMR7 reporters in the root meristem ([2]; one-week-old seedlings, 1 mM HU, GUS assay 24 hours after transfer): strong transcriptional induction; induction of SMR5 and SMR7 GUS reporters in the proliferating leaf ([2]; treated for 24 hours): induced; H2O2 decomposition rate of plant extracts [3]: reduced H2O2 decomposition rate; transcriptional induction of maize SMR genes ZmSMRg and ZmSMRh [4]: strong up-regulation; HU 24 h/0 h fold change, AT1G07500 (Siamese-related 5) [5]: 7.863; HU 24 h/0 h fold change, AT1G09815 (polymerase delta 4) [5]: 2.354; HU 24 h/0 h fold change, AT1G12020 (unknown protein) [5]: 1.873; HU 24 h/0 h fold change, AT1G13330 (Hop2 homolog) [5]: 2.949; HU 24 h/0 h fold change, AT1G17460 (TRF-like 3) [5]: 2.378; HU 24 h/0 h fold change, AT1G30600 (Subtilase family protein) [5]: 1.711; HU 24 h/0 h fold change, AT1G31280 (Argonaute family protein) [5]: 1.866; HU 24 h/0 h fold change, AT1G49030 (PLAC8 family protein) [5]: 1.553; HU 24 h/0 h fold change, AT1G59660 (Nucleoporin autopeptidase) [5]: 1.860; HU 24 h/0 h fold change, AT1G76180 (Dehydrin family protein) [5]: 1.659; HU 24 h/0 h fold change, AT2G18600 (Ubiquitin-conjugating enzyme family protein) [5]: 5.521; HU 24 h/0 h fold change, AT2G21790 (ribonucleotide reductase 1) [5]: 2.514; HU 24 h/0 h fold change, AT2G30360 (SOS3-interacting protein 4) [5]: 2.274; HU 24 h/0 h fold change, AT2G31320 (poly(ADP-ribose) polymerase 2) [5]: 2.445; HU 24 h/0 h fold change, AT2G36910 (ATP binding cassette subfamily B1) [5]: 1.569; HU 24 h/0 h fold change, AT2G45460 (SMAD/FHA domain-containing protein) [5]: 2.378; HU 24 h/0 h fold change, AT2G46610 (RNA-binding RRM/RBD/RNP motifs family protein) [5]: 3.593; HU 24 h/0 h fold change, AT2G47680 (zinc finger CCCH type helicase family protein) [5]: 3.422; HU 24 h/0 h fold change, AT3G02400 (SMAD/FHA domain-containing protein) [5]: 2.479; HU 24 h/0 h fold change, AT3G07800 (Thymidine kinase) [5]: 7.160; HU 24 h/0 h fold change, AT3G12510 (MADS-box family protein) [5]: 2.266; HU 24 h/0 h fold change, AT3G15240 (Serine/threonine-protein kinase WNK-related) [5]: 1.790; HU 24 h/0 h fold change, AT3G20490 (unknown protein) [5]: 2.313; HU 24 h/0 h fold change, AT3G25250 (AGC kinase family protein) [5]: 1.853; HU 24 h/0 h fold change, AT3G27060 (Ferritin/ribonucleotide reductase-like family protein) [5]: 4.595; HU 24 h/0 h fold change, AT3G27620 (alternative oxidase 1C) [5]: 2.056; HU 24 h/0 h fold change, AT3G27950 (GDSL-like Lipase/Acylhydrolase superfamily protein) [5]: 1.641; HU 24 h/0 h fold change, AT3G42860 (zinc knuckle CCHC-type family protein) [5]: 2.445; HU 24 h/0 h fold change, AT3G45730 (unknown protein) [5]: 5.637; HU 24 h/0 h fold change, AT4G02390 (Poly(ADP-ribose) polymerase) [5]: 7.701; HU 24 h/0 h fold change, AT4G04750 (Major facilitator superfamily protein) [5]: 1.625; HU 24 h/0 h fold change, AT4G11740 (Ubiquitin-like superfamily protein) [5]: 1.653; HU 24 h/0 h fold change, AT4G15480 (UDP-Glycosyltransferase superfamily protein) [5]: 2.196; HU 24 h/0 h fold change, AT4G19130 (Replication factor-A protein 1-related) [5]: 2.305; HU 24 h/0 h fold change, AT4G21070 (Breast cancer susceptibility1) [5]: 10.375; HU 24 h/0 h fold change, AT4G22960 (Unknown function DUF544) [5]: 5.315; HU 24 h/0 h fold change, AT4G28950 (RHO-related protein from plants 9) [5]: 9.680; HU 24 h/0 h fold change, AT4G29170 (Mnd1 family protein) [5]: 2.898; HU 24 h/0 h fold change, AT4G35740 (DEAD/DEAH box RNA helicase family protein) [5]: 2.594; HU 24 h/0 h fold change, AT5G02220 (unknown protein; SMR4) [5]: 4.500; HU 24 h/0 h fold change, AT5G03780 (TRF-like 10) [5]: 7.111; HU 24 h/0 h fold change, AT5G06190 (unknown protein) [5]: 2.878; HU 24 h/0 h fold change, AT5G11460 (Protein of unknown function DUF581) [5]: 5.483; HU 24 h/0 h fold change, AT5G14920 (Gibberellin-regulated family protein) [5]: 2.789; HU 24 h/0 h fold change, AT5G14930 (senescence-associated gene 101) [5]: 1.542; HU 24 h/0 h fold change, AT5G20850 (RAS associated with diabetes protein 51) [5]: 4.643; HU 24 h/0 h fold change, AT5G24280 (Gamma-irradiation and mitomycin c induced 1) [5]: 4.823; HU 24 h/0 h fold change, AT5G25810 (Integrase-type DNA-binding superfamily protein) [5]: 1.558; HU 24 h/0 h fold change, AT5G40840 (Rad21/Rec8-like family protein) [5]: 3.375; HU 24 h/0 h fold change, AT5G48720 (X-ray induced transcript 1) [5]: 5.296; HU 24 h/0 h fold change, AT5G49480 (Ca2+-binding protein 1) [5]: 1.952; HU 24 h/0 h fold change, AT5G55490 (Gamete expressed protein 1) [5]: 1.670; HU 24 h/0 h fold change, AT5G60100 (pseudo-response regulator 3) [5]: 1.619; HU 24 h/0 h fold change, AT5G60250 (Zinc finger C3HC4-type RING finger family protein) [5]: 8.907; HU 24 h/0 h fold change, AT5G64060 (NAC domain containing protein 103) [5]: 5.579; HU 24 h/0 h fold change, AT5G66130 (RADIATION SENSITIVE 17) [5]: 2.888; HU 24 h/0 h fold change, AT5G66985 (unknown protein) [5]: 3.294; HU 24 h/0 h fold change, AT5G67360 (Subtilase family protein) [5]: 1.676; HU 24 h/0 h fold change, AT5G67460 (O-Glycosyl hydrolases family 17 protein) [5]: 2.799
